Patent publication EP1304101A1, “Composition and method for use of pyridinium derivatives in cosmetic and therapeutic applications” (Torrent Pharmaceuticals Ltd, priority 2001, dated 2003)
Values joined by “and” are separate entries in the source; they are usually repeats but may differ in a detail not shown here. Equal values may be shown once.

Tests used:
[1] = Free radical scavenging activity on ABTS radical cation (absorbance at 730nm); format: biochemical
Description: This method measures the relative ability of free radical scavenging substances to scavenge the ABTS ^.+ i.e. 2,2-Azino-bis-(3-ethyl benzo thiazoline-6-sulfonate) radical cation as compared to a standard amount of standard or free radical scavengers antioxidants. Incubation of ABTS with Peroxidase (metmyoglobin) and hydrogen peroxide results in the production of radical cation ABTS^.+ . This species is blue- green in colour and can be detected at 730nm. Antioxidants or free radical scavengers in the added sample that causes suppression of the color to a degree that is proportional to their concentration.
• A. Phosphate Citrate Buffer (pH 5.0): 48.5ml of 0.1M citric acid with sufficient 0.2M disodium hydrogen phosphate to produce 100 ml. • B. Phosphate Buffer Saline (PBS): Dissolve 40.0g of NaCl, 1.0g of KCI, 1.0g of KH2PO4 and 3.05g of Na2HPO4 in 1 litre milli-Q water. Dilute 200ml of above solution to 1 litre with milli-Q water (pH 7.4-7.6). • C. 3µM stock solution of Peroxidase was prepared in phosphate buffer saline pH 7.4(PBS). • D. 1.08 mM stock solution of Hydrogen peroxide was prepared in phosphate buffer saline pH 7.4 (PBS).
1 tablet (10mg) was dissolved in phosphate citrate buffer (pH 5.0).
5.0ml of ABTS stock solution was diluted with PBS to 20 ml.
320 µg of the enzyme was dissolved in 2.5 ml of PBS.
12µl of Hydrogen Peroxide (30%w/v) was diluted to 100ml with PBS.
0.1mM of stock solution of the drug was prepared which was serially diluted in PBS to get solutions of different concentrations.
To 18ml of ABTS stock solution, 100µl of Horseradish Peroxidase stock solution was added.
As soon as 1.5 ml of hydrogen peroxide solution was added to the above solution, blue-green colour of the ABTS radicals appeared. This solution was incubated at 30°C for 30 min.
980µl of ABTS radical stock solution was added to an eppendorf tube. To it was added 100µl of various PBS solution.
980µl of ABTS radical stock solutions were added to different eppendorf tubes. To it were added 100µl of various concentrations of drug solution.
The absorbance of control and test samples was recorded immediately at 730nm taking PBS as blank.
Calculation: The percent antioxidant activity was calculated according to the formula: % Antioxidant activity = [O.D of test sample/O.D of control*100]-100.

AGE-BSA = target: T1, AGE-BSA (Bos taurus, UniProt P02769); assay: In-vitro AGE breaking activity by ELISA (16 weeks AGE-BSA incubated with test compound); format: biochemical, bovine; details: for % Breakage: 37°C, 24 hours; for AGE breaking activity compared to PTB / potency (AGE breaking activity compared to PTB): comparison in words based on Table 2
T1 construct: Bovine serum albumin (fraction V) (BSA); from tissue
T1 sequence (P02769 25-607): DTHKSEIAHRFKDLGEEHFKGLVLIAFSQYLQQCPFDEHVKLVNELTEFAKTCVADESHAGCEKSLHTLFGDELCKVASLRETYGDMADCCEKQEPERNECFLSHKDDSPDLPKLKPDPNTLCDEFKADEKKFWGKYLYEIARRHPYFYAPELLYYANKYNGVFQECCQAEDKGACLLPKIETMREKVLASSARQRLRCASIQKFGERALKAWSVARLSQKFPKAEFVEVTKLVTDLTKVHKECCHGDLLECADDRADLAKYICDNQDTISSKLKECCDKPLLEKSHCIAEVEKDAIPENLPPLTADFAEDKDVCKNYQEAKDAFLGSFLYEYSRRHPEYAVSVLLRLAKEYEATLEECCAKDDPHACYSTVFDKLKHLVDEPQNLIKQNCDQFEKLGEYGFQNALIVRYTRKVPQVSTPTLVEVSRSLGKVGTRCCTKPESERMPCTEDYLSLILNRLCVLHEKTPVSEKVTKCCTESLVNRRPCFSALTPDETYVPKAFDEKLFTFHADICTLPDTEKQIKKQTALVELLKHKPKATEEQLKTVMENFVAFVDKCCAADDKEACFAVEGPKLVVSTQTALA
Description: AGE breaking activity has been confirmed by the screening procedure as mentioned below: • Materials: • Bovine serum albumin (fraction V) (BSA) • Glucose, analytical grade • Phosphate buffered saline (PBS) • Equipment: • Microplate ELISA Reader - Spectramax Plus (Molecular Devices, USA) • Microplate washer, (Bio -Tec Instruments, USA) • pH meter • Methods of experiment: Elisa (Enzyme Linked Immunosorbent Assay) 160 mg/ml of protein, bovine serum albumin, BSA and 1.6M glucose sugar were dissolved in phosphate buffered saline, PBS. Sodium azide was added at 0.02% concentration as a preservative. The solution was filtered asceptically through a 0.22 µM filter and kept for aging at 37°C for 16 weeks. After 16 weeks the solution was dialyzed against PBS, aliquoted and stored at - 20°C.
To determine the AGE breaking activity, 10 µg/ml of the 16 weeks AGE-BSA was incubated with different concentrations of the test compounds at 37°C for 24 hours and AGE breaking activity of the test compounds by ELISA was determined.
Different concentrations of 16 weeks AGE-BSA were coated on a microtitre plate as standard. Each concentration is coated in triplicates. • 2. The test samples were coated on microtitre plate at a concentration of 5 ng. to 20 ng per well in triplicates. • 3. The plate was incubated at 37°C for one hour. • 4. After incubation the plate was washed with PBST (PBS with 0.05% Tween 20). • 5. Blocking with 5% skimmed milk in PBS at 37°C for one hour was done. • 6. The plate was washed with PBST. • 7. Primary antibody against AGE-BSA was added and the plate is incubated at 37°C for one hour. • 8. The plate was washed with PBST • 9. Secondary antibody anti rabbit HRPO (Horse-Radish Per Oxidase) conjugate was added and the plate is incubated at 37°C for one hour. • 10. The plate was washed with PBST. • 11. Colour development with OPD (orthophenylenediamine dihydrochloride) and hydrogen peroxide was done. • 12. OD (optical density) at (450nm reading - 620nm reading) was measured after incubation at 37°C for 15 minutes with Microplate ELISA Reader.
The breaker activity of the compounds were determined by the following formula: % Breaker activity =(OD450-620 Control - OD450-620 Test)/(OD450-620 Control)x 100 [formula] OD450-620Control= Absorbance of 20ng AGE-BSA after incubation at 37°C for 24 hours without test compound OD450-620Test= Absorbance of 20ng AGE-BSA after incubation at 37°C for 24 hours with required concentration of test compound

Rat Tail Tendon Collagen = assay: In-vivo AGE breaking: collagen solubility in rat tail tendon of STZ-diabetic rats after 8 weeks of treatment; design: species or system male wister rats; details: 8 weeks treatment
Source text: The results are mentioned in Table 3 below:
A brief summary of observation is as follows.

Maillard reaction = assay: AGE inhibiting activity, Method I (BSA + ribose, fluorescence); format: biochemical; details: 37° C for 7 days
Description: The following method was used to determine the inhibitory effect of the test compound on Maillard reaction in-vitro.
Addition of compound was done in aseptic conditions. Sodium azide (0.02%) was also added in this solution in order to prevent microbial growth. A separate tube containing BSA, ribose and sodium azide in the same concentration and buffer as above, but without any test compound, was also incubated as positive control.
After incubation at 37° C for 7 days, 40 micro litre sample from each tube was removed and diluted with PBS to have final concentration of BSA at 1mg/ml. The fluorescence of all the samples was measured at Excitation Maximum of 355nM and the Emission Maximum of 460nM using f-MAX Fluorimeter (Molecular Device, USA). In order to study the effect of test compound on fluorescence, freshly prepared compound solution was mixed with previously incubated positive control (i.e. BSA + ribose), so as to achieve same concentration of all the components as that of test samples.
The percent inhibition of test compound was measured as follows: % Inhibition =(F4 - F3)/(F4)X 100 [formula] Where F3 = Fluorescence of BSA + ribose + compound,F4 is fluorescence of incubated (BSA + ribose) + freshly added test compound.

SMILES | Relative Free Radical Scavenging Activity(%) on ABTS ([1]; 11.5µM) [%] | Relative Free Radical Scavenging Activity(%) on ABTS ([1]; 23.0µM) [%] | Relative Free Radical Scavenging Activity(%) on ABTS ([1]; 46.0µM) [%] | Relative Free Radical Scavenging Activity(%) on ABTS ([1]; 92.5µM) [%] | % Breakage (AGE-BSA; 10 mM test compound) [%] | AGE breaking activity compared to PTB (AGE-BSA) | potency (AGE breaking activity compared to PTB) (AGE-BSA) | further results
CS(=O)(=O)NNC(=O)c1ccc[n+](CC(=O)c2cccs2)c1.[Br-] [Compound 5, 1-(2-thien-2'-yl-2-oxoethyl) -3-(methanesulfonylhydrazinocarbonyl) pyridinium bromide] | 47.2 | 65.6 | 83.7 | 100 | 16 | – | – | % Breakage (AGE-BSA; 50 mM test compound): 68%; % Improvement in collagen solubility with respect to untreated control subject. (Rat Tail Tendon Collagen; 10.0mg/kg): 88.80%; %Inhibition (Day 7) (Maillard reaction; 10mM): 70%
O=C(NNC(=O)c1ccc[n+](CC(=O)c2cccs2)c1)c1ccc[n+](CC(=O)c2cccs2)c1.[Br-].[Br-] [Compound 6, N, N'-bis [3-carbonyl-1-(2-thien-2'-yl-2-oxoethyl)pyridinium] hydrazine dibromide] | – | – | – | – | – | superior | – | % Breakage (AGE-BSA; 5 mM test compound): 53%; % Improvement in collagen solubility with respect to untreated control subject. (Rat Tail Tendon Collagen; 7.5mg/kg): 56.70%
CCOC(=O)C[n+]1cccc(C(=O)NCCOC(=O)c2ccccc2)c1.[Br-] [Compound 7, 1-(2-ethoxy-2-oxoethyl) -3-(2-(benzoyloxy)ethylaminocarbonyl) pyridinium bromide] | – | – | – | – | – | – | – | % Breakage (AGE-BSA; 20 mM test compound): 36%; %Inhibition (Day 7) (Maillard reaction; 10mM): 51%
O=C(NNC(=O)c1ccc[n+](CC(=O)c2cccs2)c1)c1ccc[n+](CC(=O)c2cccs2)c1.[Cl-].[Cl-] [Compound 33, N, N'-bis [3-carbonyl-1-(2-thien-2'-yl-2-oxoethyl)pyridinium] hydrazine dichloride] | 58.4 | – | – | 100 | – | superior | – | Relative Free Radical Scavenging Activity(%) on ABTS ([1]; 23 µM): 72.8%; Relative Free Radical Scavenging Activity(%) on ABTS ([1]; 46 µM): 98.5%; % Breakage (AGE-BSA; 5 mM test compound): 20%; % Improvement in collagen solubility with respect to untreated control subject. (Rat Tail Tendon Collagen; 15.0 mg/kg): 80.45%; %Inhibition (Day 7) (Maillard reaction; 2.5mM): 68.4%
O=C(C[n+]1cccc(C(=O)NNC(=O)c2ccc[n+](CC(=O)NC3CC3)c2)c1)NC1CC1 [Compound 39, N, N'-bis-[3-carbonyl-1-(2-cyclopropylamino-2-oxoethyl)pyridinium] hydrazine dichloride] | 43.0 | 62.8 | 95.6 | 98 | – | superior | – | % Breakage (AGE-BSA; 5 mM test compound): 22.8%; % Improvement in collagen solubility with respect to untreated control subject. (Rat Tail Tendon Collagen; 6.0mg/kg): 28.00%
CCOC(=O)NNC(=O)c1ccc[n+](CC(=O)c2cccs2)c1 [Compound 54, 1-(2-thien-2'-yl-2-oxoethyl)-3-(ethoxycarbonyl hydrazinocarbonyl) pyridinium bromide] | 5.22 | 15.45 | 46.82 | 77.07 | 33.43 | – | – | %Inhibition (Day 7) (Maillard reaction; 2.5mM): 46.3%
Cc1ccc(C(=O)C[n+]2cccc(C(=O)NNS(C)(=O)=O)c2)s1.[Cl-] [Compound 63, 1-(2-(5-methylthien-2-yl)-2-oxoethyl)-3-(methanesulfonyl hydrazinocarbonyl) pyridinium chloride] | 10.75 | 47.20 | 88.64 | 99.18 | 25.17 | – | – | %Inhibition (Day 7) (Maillard reaction; 6.25mM): 58.15%
CS(=O)(=O)NNC(=O)c1ccc[n+](CC(=O)c2cc([N+](=O)[O-])cs2)c1.[Br-] [Compound 64, 1-(2-(4-nitrothien-2-yl)-2-oxoethyl)-3-(methanesulfonyl hydrazinocarbonyl) pyridinium bromide] | – | – | – | – | 60.94 | superior | significantly much higher | Relative Free Radical Scavenging Activity(%) on ABTS ([1]; 11.5µM, listed as Compound No.64, 11.5 µM): 41.8% and 26.01%; Relative Free Radical Scavenging Activity(%) on ABTS ([1]; 23.0µM, listed as Compound No.64, 23 µM): 55.7% and 57.39%; Relative Free Radical Scavenging Activity(%) on ABTS ([1]; 46.0µM, listed as Compound No.64, 46 µM): 72.2% and 99.30%; Relative Free Radical Scavenging Activity(%) on ABTS ([1]; 92.5µM, listed as Compound No.64, 92.5 µM): 99.0% and 99.62%; Relative Free Radical Scavenging Activity(%) on ABTS ([1]; 925µM): 100%
O=C(C[n+]1cccc(C(=O)NNc2ccccc2)c1)Nc1ccccc1.[Cl-] [Compound 65, 1-(2-phenylamino-2-oxoethyl)-3-(phenyl hydrazinocarbonyl) pyridinium chloride] | 27.67 | 59.20 | 94.14 | 100.00 | – | superior | significantly much higher | % Breakage (AGE-BSA; 2.5 mM test compound): 68.35%
CS(=O)(=O)NNC(=O)c1ccc[n+](CC(=O)c2ccc([N+](=O)[O-])s2)c1 [Compound 67, 1-2-(5-nitro-thien-2-yl)-2-oxoethyl)-3-(methanesulfonyl hydrazino carbonyl) pyridinium chloride] | 13.11 | 50.70 | 97.46 | 99.43 | – | superior | significantly much higher | % Breakage (AGE-BSA; 1 mM test compound): 42.01%
O=C(NNS(=O)(=O)C(F)(F)F)c1ccc[n+](CC(=O)c2cccs2)c1 [Compound 68, 1-(2-thien-2'-yl-2-oxoethyl)-3-(trifluoromethanesulfonyl hydrazinocarbonyl) - pyridinium bromide] | 38.47 | 43.54 | 89.32 | 95.07 | 92.64 | superior | significantly much higher | –
O=C(NCCO)c1ccc[n+](CC(=O)c2cccs2)c1 [Compound 90, 1-(2-Thien-2'-yl-2-oxoethyl)-3-((2-hydroxyethyl)aminocarbonyl) pyridinium bromide] | 47.8 | 58.8 | 78.2 | 99.5 | 50 | – | – | Relative Free Radical Scavenging Activity(%) on ABTS ([1]; 925µM): 100%
CCCCOC(=O)c1ccc[n+](CC(=O)Nc2ccccc2)c1.[Cl-] [Compound 93, 1-(2- Phenylamino-2-oxoethyl) -3-(n-butyloxycarbonyl) pyridinium chloride] | 8.5 | 8.6 | 9.6 | 11.4 | 57 | – | – | Relative Free Radical Scavenging Activity(%) on ABTS ([1]; 925µM): 25.0%
